# In the RepoRT retention time repository (doi:10.1016/j.scitotenv.2015.08.078):
# Test: RP, Waters ACQUITY UPLC BEH C18, 100 × 2.1 mm, 1.7 µm, 0.3 mL/min, estimated dead time 0.73 min; A: water + 0.1% formic acid, pH 3; B: methanol + 0.1% formic acid, pH 3; gradient (min/%B) 0/10 14/90 16/90 18/10
# Conditions: stereoisomer not certain
row,Compound,LC retention time
1,Nc1ccc(S(=O)(=O)c2ccc(N)cc2)cc1 [Dapsone],3.17 min
2,CCCCNC(=O)NS(=O)(=O)c1ccc(C)cc1 [Tolbutamide],8.33 min
3,CC12CCC(=O)C=C1CCC1C2C(O)CC2(C)C1CCC2(O)C(=O)CO (stereo not given) [Hydrocortisone],8.53 min
4,COc1ccc(NS(=O)(=O)c2ccc(N)cc2)nn1 [Sulfamethoxypyridazine],3.65 min
5,CC(COc1ccc(Oc2ccccc2)cc1)Oc1ccccn1 (stereo not given) [Pyriproxyfen],14 min
6,CCCS(=O)(=O)c1ccc2nc(NC(=O)OC)[nH]c2c1 [Albendazole sulfone],6.16 min
7,CC(=O)Oc1ccc2c3c1OC1C(OC(C)=O)C=CC4C(C2)N(C)CCC341 (stereo not given) [Heroin],5.32 min
8,COC(=O)NC(=S)Nc1ccccc1NC(=S)NC(=O)OC [Thiophanate-methyl],7.2 min
9,CC(C)(C)NCC(O)c1cc(Cl)c(N)c(C(F)(F)F)c1 (stereo not given) [Mabuterol],6.05 min
10,CCCC(=NOCC)C1=C(O)CC(C2CCCSC2)CC1=O (stereo not given) [Cycloxydime],11.3 min
11,CC(C)(C)C(O)C(Oc1ccc(Cl)cc1)n1cncn1 (stereo not given) [Triadimenol],11.3 min
12,CCOP(=S)(OCC)Oc1cc(C)nc(N(CC)CC)n1 [Pirimiphos-ethyl],13 min
13,CC1(C)C(C(=O)OC(C#N)c2cccc(Oc3ccccc3)c2)C1(C)C (stereo not given) [Fenpropathrin],13.7 min
14,COC(=O)C(C)N(C(=O)Cc1ccccc1)c1c(C)cccc1C (stereo not given) [Benalaxyl],11.7 min
15,CN(C)CCCN1c2ccccc2Sc2ccc(Cl)cc21 [Chlorpromazine],10.3 min
16,COP(=S)(OC)SCn1nnc2ccccc2c1=O [Azinphos-methyl],10.1 min
17,CC(N)Cc1ccc2c(c1)OCO2 (stereo not given) [MDA],3.62 min
18,Nc1ccc(S(=O)(=O)NC(=O)c2ccccc2)cc1 [Sulfabenzamide],3 min
19,CC(C)c1ncc([N+](=O)[O-])n1C [Ipronidazole (IPZ)],5.42 min
20,C=C(C)C1(O)OC(=O)C=C1OC (stereo not given) [Penicillic acid],3.78 min
21,CCCC(=NOCC)C1C(=O)CC(CC(C)SCC)CC1=O (stereo not given) [Sethoxydim],11.8 min
22,CC(C)OP(=O)(OC(C)C)SCc1ccccc1 [Iprobenfos],11.5 min
23,CSc1nnc(C(C)(C)C)c(=O)n1N [Metribuzin],7.06 min

row,Compound,LC retention time
1,Cc1cc(C)nc(NS(=O)(=O)c2ccc(N)cc2)n1 [Sulfamethazine],3.59 min
2,CCNC(=O)NC(=O)C(C#N)=NOC [Cymoxanil],5.24 min
3,CCNP(=S)(OC)OC(C)=CC(=O)OC(C)C (stereo not given) [Propetamphos],10.6 min
4,COP(=O)(OC)Oc1ccc(SC)c(C)c1 [Fenthion oxon],9.48 min
5,O=C(O)c1cn(C2CC2)c2cc(N3CCNCC3)c(F)cc2c1=O [Ciprofloxacin],3.93 min
6,CC(C)N(Cc1ccccc1)C(=O)C(C)(C)C [Tebutam],11.1 min
7,CCOP(=S)(NC(C)C)Oc1ccccc1C(=O)OC(C)C (stereo not given) [Isofenphos],12.1 min
8,CC1c2cccc(O)c2C(O)=C2C(=O)C3(O)C(O)=C(C(N)=O)C(=O)C(N(C)C)C3C(O)C21 (stereo not given) [Doxycycline],7.42 min
9,Clc1ccc(C2(Cn3cncn3)CC(Br)CO2)c(Cl)c1 (stereo not given) [Bromuconazole I],10.6 min
10,COP(=O)(NC(C)=O)SC (stereo not given) [Acephate],1.45 min
11,COC(=O)C1C(OC(=O)c2ccccc2)CC2CCC1N2C (stereo not given) [Cocaine],5.49 min
12,Cc1ccc(C(=CCN2CCCC2)c2ccccn2)cc1 [Triprolidine],7.64 min
13,CCOP(=S)(Oc1ccc(C#N)cc1)c1ccccc1 (stereo not given) [Cyanofenphos],11.7 min
14,O=C(O)c1cn(-c2ccc(F)cc2)c2cc(N3CCNCC3)c(F)cc2c1=O [Sarafloxacin],5.12 min
15,CCCOC(=O)c1ccccc1C(=O)OCCC [Dipropyl phthalate],11.1 min
16,CC1(C)SC2C(NC(=O)C(N)c3ccccc3)C(=O)N2C1C(=O)O (stereo not given) [Ampicillin],4.95 min
17,CN=C(NC#N)NCCSCc1nc[nH]c1C [Cimetidine],2.28 min
18,CCOP(=S)(OCC)Oc1ccc([N+](=O)[O-])cc1 [Parathion],11.3 min
19,CN1CCCC1c1cccnc1 (stereo not given) [Nicotine],1.12 min
20,COc1ccc(C(O)(c2cncnc2)C2CC2)cc1 (stereo not given) [Ancymidol],7.72 min
21,COCCc1ccc(OCC(O)CNC(C)C)cc1 (stereo not given) [Metoprolol],5.31 min
22,CC1(C)C(C=C(Br)Br)C1C(=O)OC(C#N)c1cccc(Oc2ccccc2)c1 (stereo not given) [Deltamethrin],14 min
23,CC(=O)Nc1ccc(S(=O)(=O)Nc2ccc([N+](=O)[O-])cc2)cc1 [Sulfanitran],7.27 min

row,Compound,LC retention time
1,CN(C)CCOC(c1ccccc1)c1ccccc1 [Diphenhydramine],7.71 min
2,CCSC(=O)N(CC)C1CCCCC1 [Cycloate],12.3 min
3,O=C(O)c1ccccc1C(=O)Nc1cccc2ccccc12 [Naptalam],6.59 min
4,COCCOc1ccccc1S(=O)(=O)NC(=O)Nc1nc(OC)nc(OC)n1 [Cinosulfuron],6.25 min
5,CCOC(=O)CC(SP(=S)(OC)OC)C(=O)OCC (stereo not given) [Malathion],11.6 min
6,COP(=S)(OC)SCN1C(=O)c2ccccc2C1=O [Phosmet],9.52 min
7,CC12CCC(=O)C=C1CCC1C2C(=O)CC2(C)C1CCC2(O)C(=O)CO (stereo not given) [Cortisone],8.13 min
8,Cc1ccccc1C(=O)Nc1cccc(OC(C)C)c1 [Mepronil],10.4 min
9,CCCCCc1cc(O)c2c(c1)OC(C)(C)C1CC(O)C(C)=CC21 (stereo not given) [OH-THC],13.9 min
10,O=C1CN=C(c2ccccc2)c2cc(Cl)ccc2N1 [Nordiazepam],10.5 min
11,Cc1cc(C)nc(NC(=O)NS(=O)(=O)c2ccccc2C(=O)OC2COC2)n1 [Oxasulfuron],6.3 min
12,CCCC1COC(Cn2cncn2)(c2ccc(Cl)cc2Cl)O1 (stereo not given) [Propiconazole],12.5 min
13,CC(C)N(C(=O)SCC(Cl)=C(Cl)Cl)C(C)C [Tri-allate],13.3 min
14,CC1CN(C2CCCCCCCCCCC2)CC(C)O1 (stereo not given) [Dodemorph],13.4 min
15,CCc1nn(C)c(C(=O)NCc2ccc(C(C)(C)C)cc2)c1Cl [Tebufenpyrad],13.2 min
16,CC1=C(C(=O)O)N2C(=O)C(NC(=O)C(N)c3ccccc3)C2SC1 (stereo not given) [Cefalexin],3.25 min
17,CCn1cc(C(=O)O)c(=O)c2cc(F)c(N3CCNCC3)cc21 [Norfloxacin],4.27 min
18,Cc1ccc(N(SC(F)(Cl)Cl)S(=O)(=O)N(C)C)cc1 [Tolyfluanid],12.4 min
19,CCC1(C2OC(C3OC(O)(CO)C(C)CC3C)CC2C)CCC(C2(C)CCC3(CC(O)C(C)C(C(C)C(OC)C(C)C(=O)O)O3)O2)O1 (stereo not given) [Monensin],15.3 min
20,Cc1c(N)c(=O)n(-c2ccccc2)n1C [4-amino-antipyrine],2.92 min
21,COC(=O)c1cccc(C)c1S(=O)(=O)NC(=O)Nc1nc(OCC(F)(F)F)nc(N(C)C)n1 [Triflusulfuron-methyl],9.27 min
22,CN(C)C(=O)Nc1ccc(Cl)c(Cl)c1 [Diuron],9.72 min
23,CCC1OC(=O)C(C)C(OC2CC(C)(OC)C(O)C(C)O2)C(C)C(OC2OC(C)CC(N(C)C)C2O)C(C)(OC)CC(C)C(=O)C(C)C(O)C1(C)O (stereo not given) [Clarithromycin],10.5 min

row,Compound,LC retention time
1,CCCC1CC(C(=O)NC(C(C)Cl)C2OC(SC)C(O)C(O)C2O)N(C)C1 (stereo not given) [Clindamycin],7.04 min
2,CCCCC1=NC2(CCCC2)C(=O)N1Cc1ccc(-c2ccccc2-c2nn[nH]n2)cc1 [Irbesartan],10.4 min
3,CCNc1nc(NCC)[nH]c(=O)n1 [2-hydroxysimazine],3.33 min
4,CC(C)=CC1C(C(=O)OCN2C(=O)C3=C(CCCC3)C2=O)C1(C)C (stereo not given) [Tetramethrin],12.8 min
5,CCOP(=S)(OCC)Oc1nc(Cl)c(Cl)cc1Cl [Chloropyrifos],14.1 min
6,Nc1ccccc1O [2-Aminophenol],1.44 min
7,COc1ccc(-c2ccccc2)cc1NNC(=O)OC(C)C [Bifenazate],10.8 min
8,CNC(=O)Oc1ccccc1OC(C)C [Propoxur],7.36 min
9,CCCC1OC2CC3C4CCC5=CC(=O)C=CC5(C)C4C(O)CC3(C)C2(C(=O)CO)O1 (stereo not given) [Budesonide],10.9 min
10,CC(C)(C)Nc1nc(N)[nH]c(=O)n1 [Deethyl-2-hydroxy-terbuthylazine],3.24 min
11,CNC(=O)Oc1cccc2ccccc12 [Carbaryl],7.91 min
12,CNC(=O)Oc1cc(C)cc(C(C)C)c1 [Promecarb],10.3 min
13,CC1CCCCC1NC(=O)Nc1ccccc1 (stereo not given) [Siduron A],9.88 min
14,CCOP(=S)(OCC)SCS(=O)(=O)CC [Phorate sulfone],8.76 min
15,CCC(=C(CC)c1ccc(O)cc1)c1ccc(O)cc1 [Diethylstilbestrol],10.9 min
16,CC(C)OC(=O)C(C(=O)OC(C)C)=C1SCCS1 [Isoprothiolane],10.4 min
17,C=CCN(CC=C)C(=O)C(Cl)Cl [Dichlormid],7.52 min
18,COC(=O)Nc1cccc(OC(=O)Nc2cccc(C)c2)c1 [Phenmedipham],9.52 min
19,Cn1c([N+](=O)[O-])cnc1COC(N)=O [Ronidazole],1.79 min
20,CN(C)CCCN1c2ccccc2Sc2ccc(C(F)(F)F)cc21 [Triflupromazine],10.6 min
21,COP(=S)(OC)Oc1nc(Cl)c(Cl)cc1Cl [Chlorpyriphos-methyl],12.1 min
